Results published in patent publication US12649751B2 (Arcus Biosciences, Inc., priority 2022, dated 2026).
Where two headings read alike, the source gives them in different places.

Key:
[1] = target: HPK1 (Homo sapiens, UniProt Q92918); assay: HPK1 Biochemical Assay (ADP-Glo luminescence; low ATP 10 μM or high ATP 200 μM)
[2] = system: p-SLP-76 (Ser376) in Jurkat cells; assay: pSLP76 Cellular Assay (AlphaLISA SureFire Ultra p-SLP-76 (Ser376), anti-CD3 activated Jurkat cells); format: cell-based; details: read-out: Cellular Potency
Summary of the method: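 Read-out is AlphaLISA p-SLP-76 (Ser376) signal at 570 nm in Jurkat lysates, with IC50 fitted by 4-parameter logistic. Cells were starved overnight, exposed 1 h at 37 °C to 22 twofold compound dilutions in HBSS, then activated 45 min with anti-CD3 (0.025 mg/ml stock added).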

[3] = 2 nM HPK1, 10 μM ATP, read-out: Biochemical Potency (low ATP)
[4] = Homo sapiens, Jurkat cells, anti-CD3 stimulation, pSLP76
[5] = HPK1 ADP-Glo assay, high ATP (200 μM ATP, 5 nM HPK1), read-out: Biochemical Potency (high ATP)
[6] = Homo sapiens, pSLP76 (Ser376) AlphaLISA, anti-CD3 activated Jurkat cells
[7] = HPK1 ADP-Glo assay, low ATP (10 μM ATP, 2 nM HPK1), read-out: Biochemical Potency (low ATP)

Sequence of HPK1 (Q92918 whole entry, species assumed): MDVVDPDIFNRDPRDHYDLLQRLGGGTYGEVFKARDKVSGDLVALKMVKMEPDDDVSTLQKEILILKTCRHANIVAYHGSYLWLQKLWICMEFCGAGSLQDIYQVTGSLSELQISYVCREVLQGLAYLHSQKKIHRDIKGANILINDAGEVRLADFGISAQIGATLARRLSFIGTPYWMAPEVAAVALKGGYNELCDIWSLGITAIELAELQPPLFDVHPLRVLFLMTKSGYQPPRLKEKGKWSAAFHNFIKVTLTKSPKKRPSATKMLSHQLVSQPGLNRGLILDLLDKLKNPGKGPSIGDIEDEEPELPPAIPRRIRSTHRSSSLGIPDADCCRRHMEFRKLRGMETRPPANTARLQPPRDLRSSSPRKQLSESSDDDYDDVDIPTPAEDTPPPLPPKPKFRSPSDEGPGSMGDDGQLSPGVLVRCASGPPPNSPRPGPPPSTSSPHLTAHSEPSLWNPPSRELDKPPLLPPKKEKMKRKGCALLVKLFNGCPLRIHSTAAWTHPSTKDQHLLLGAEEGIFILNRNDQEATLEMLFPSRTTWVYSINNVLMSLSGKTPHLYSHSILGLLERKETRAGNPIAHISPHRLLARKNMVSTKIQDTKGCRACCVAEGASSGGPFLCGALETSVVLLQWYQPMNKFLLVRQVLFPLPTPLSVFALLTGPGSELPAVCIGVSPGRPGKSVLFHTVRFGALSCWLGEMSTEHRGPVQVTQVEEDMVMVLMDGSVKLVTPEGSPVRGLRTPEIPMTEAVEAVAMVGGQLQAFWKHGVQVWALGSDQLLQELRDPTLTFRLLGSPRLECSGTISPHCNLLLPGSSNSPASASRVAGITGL

| IC50 [1, 3] [nM] | IC50 [2, 4] [nM] | IC50 [1, 5] [nM] | IC50 [2, 6] [nM] | Structure (SMILES) | also measured |
| --- | --- | --- | --- | --- | --- |
| < 100 | 100 to 1000 | – | – | COc1cccc(F)c1-c1nc2cc(Nc3cccc(N4CCN(C)CC4)n3)ncc2s1 [Example 81, N-[2-(2-Fluoro-6-methoxyphenyl)-[1,3]thiazolo[5,4-c]pyridin-6-yl]-6-(4-methylpiperazin-1-yl)pyridin-2-amine] | – |
| – | – | < 100 | 100 to 1000 | Cc1cc(Nc2cc3nc(-c4cnn(C)c4C(=O)N(C)C)sc3cn2)nc(N2C[C@@H]3C[C@H]2CN3C)n1 [Example 372] | – |
| < 100 | 100 to 1000 | – | – | CN(C)Cc1nc(Nc2cc3nc(-c4c(F)cccc4Cl)sc3cn2)ccc1N1CCOCC1 [Example 20, N-[2-(2-Chloro-6-fluorophenyl)-[1,3]thiazolo[5,4-c]pyridin-6-yl]-6-[(dimethylamino)methyl]-5-(morpholin-4-yl)pyridin-2-amine] | – |
| < 100 | > 5000 | – | – | Cc1cccnc1-c1nc2cc(Nc3ccc(C)c(N4C[C@@H]5CCN(C)[C@@H]5C4)n3)ncc2s1 [Example 112, 6-[(3aS,6aS)-1-Methyl-octahydropyrrolo[3,4-b]pyrrol-5-yl]-5-methyl-N-[2-(3-methylpyridin-2-yl)-[1,3]thiazolo[5,4-c]pyridin-6-yl]pyridin-2-amine] | – |
| – | – | < 100 | 100 to 1000 | Cc1cc(Nc2cc3nc(-c4cnn(CCO)c4)sc3cn2)nc(N2C[C@@H]3C[C@H]2CN3C)n1 [Example 381] | – |
| – | – | < 100 | 100 to 1000 | CCN1C[C@@H]2C[C@H]1CN2c1nc(C)cc(Nc2cc3nc(-c4cccc(C(=O)N(C)C5CCOCC5)c4)sc3cn2)n1 [Example 528] | – |
| – | – | – | < 100 | Cc1cccnc1-c1nc2cc(Nc3cc(F)cc(N4C[C@@H]5C[C@H]4CN5)n3)ncc2s1 [Example 334] | IC50 [1, 7]: < 100 nM |
| – | – | – | – | CN1C[C@@H]2C[C@H]1CN2c1nccc(Nc2cc3nc(-c4ccnc(N5CCOCC5)c4)sc3cn2)n1 [Example 460] | IC50 [1, 7]: < 100 nM; IC50 ([2]; pSLP76 (Ser376) AlphaLISA, anti-CD3 activated Jurkat cells): 100 to 1000 nM |
| – | – | < 100 | < 100 | CS(=O)(=O)c1cccc(-c2nc3cc(Nc4cc(C5CCOCC5)nc(N5C[C@@H]6C[C@H]5CN6)n4)ncc3s2)c1 [Example 443] | IC50 [1, 7]: < 100 nM |
| – | – | < 100 | < 100 | c1cnn(-c2nc3cc(Nc4cnc(C5CCOCC5)c(N5C[C@@H]6C[C@H]5CN6)n4)ncc3s2)c1 [Example 508] | – |
| < 100 | 1000 to 5000 | – | – | CN1C[C@@H]2C[C@H]1CN2c1cccc(Nc2cc3nc(-c4cncc(S(C)(=O)=O)c4)sc3cn2)n1 [Example 131, N-[2-(5-Methanesulfonylpyridin-3-yl)-[1,3]thiazolo[5,4-c]pyridin-6-yl]-6-[(1S,4S)-5-methyl-2,5-diazabicyclo[2.2.1]heptan-2-yl]pyridin-2-amine] | – |
| < 100 | 100 to 1000 | – | – | Cc1cccnc1-c1nc2cc(Nc3ccnc(N4C[C@@H](N)C[C@H]4CO)n3)ncc2s1 [Example 155, [(2S,4S)-4-Mmino-1-(4-{[2-(3-methylpyridin-2-yl)-[1,3]thiazolo[5,4-c]pyridin-6-yl]amino}pyrimidin-2-yl)pyrrolidin-2-yl]methanol] | – |
| – | – | < 100 | 100 to 1000 | Cc1cc(Nc2cc3nc(-c4cccc(C(=O)N(C)C)c4)sc3cn2)nc(N2C[C@@H]3C[C@H]2CN3Cc2cccnc2)n1 [Example 497] | – |
| – | – | < 100 | < 100 | Cc1cc(Nc2cc3nc(-c4cccc(C(=O)N(C)CC5CC5)c4)sc3cn2)nc(N2C[C@@H]3C[C@H]2CN3CCO)n1 [Example 558] | – |
| – | – | < 100 | 100 to 1000 | Cc1cc(Nc2cc3nc(-c4cccc(C5(O)CCCC5)c4)sc3cn2)nc(N2C[C@@H]3C[C@H]2CN3C)n1 [Example 403] | – |
| – | – | < 100 | 100 to 1000 | CCN1C[C@@H]2C[C@H]1CN2c1nc(C)cc(Nc2cc3nc(-c4cccc(CN5CCOC5=O)c4)sc3cn2)n1 [Example 310, (2-{(1S,4S)-5-ethyl-2,5-diazabicyclo[2.2.1]hept-2-yl}-6-methyl-4-pyrimidinyl)(2-{m-[(2-oxo-1,3-oxazolidin-3-yl)methyl]phenyl}-3-thia-1,5-diaza-6-indenyl)amine] | – |
| < 100 | > 5000 | – | – | Cc1ccc(Nc2cc3nc(-n4nccc4C)sc3cn2)nc1CN[C@H]1CCOC1 [Example 198, 5-Methyl-N-[2-(5-methyl-1H-pyrazol-1-yl)-[1,3]thiazolo[5,4-c]pyridin-6-yl]-6-({[(3S)-oxolan-3-yl]amino}methyl)pyridin-2-amine] | – |
| < 100 | 100 to 1000 | – | – | Cc1cc(-c2nc3cc(Nc4cccc(N5C[C@@H]6C[C@H]5CN6C)n4)ncc3s2)ccn1 [Example 96, 6-[(1S,4S)-5-Methyl-2,5-diazabicyclo[2.2.1]heptan-2-yl]-N-[2-(2-methylpyridin-4-yl)-[1,3]thiazolo[5,4-c]pyridin-6-yl]pyridin-2-amine] | IC50 ([1]; 5 nM HPK1, 200 μM ATP, read-out: Biochemical Potency (high ATP)): < 100 nM |

| IC50 [1, 3] [nM] | IC50 [2, 4] [nM] | IC50 [1, 5] [nM] | IC50 [2, 6] [nM] | Structure (SMILES) | also measured |
| --- | --- | --- | --- | --- | --- |
| < 100 | 100 to 1000 | – | – | Cc1cccnc1-c1nc2cc(Nc3ccc(C)c(N4C[C@@H]5C[C@H]4CN5)n3)ncc2s1 [Example 84, 6-[(1S,4S)-2,5-Diazabicyclo[2.2.1]heptan-2-yl]-5-methyl-N-[2-(3-methylpyridin-2-yl)-[1,3]thiazolo[5,4-c]pyridin-6-yl]pyridin-2-amine] | – |
| – | – | < 100 | 100 to 1000 | Cc1cc(Nc2cc3nc(-c4ccnc(N5CCS(=O)(=O)CC5)c4)sc3cn2)nc(N2C[C@@H]3C[C@H]2CN3C)n1 [Example 478] | – |
| < 100 | > 5000 | – | – | Cc1cccnc1-c1nc2cc(Nc3ccc(C)c(N4C[C@H](N)C[C@H]4CO)n3)ncc2s1 [Example 69, [(2S,4R)-4-Amino-1-(3-methyl-6-{[2-(3-methylpyridin-2-yl)-[1,3]thiazolo[5,4-c]pyridin-6-yl]amino}pyridin-2-yl)pyrrolidin-2-yl]methanol] | – |
| < 100 | > 5000 | – | – | Cc1cccnc1-c1nc2cc(Nc3ccc(Cl)c(CN4CCCC4)n3)ncc2s1 [Example 60] | – |
| – | – | – | 5000 to 25000 | Cc1c(N)cncc1-c1nc2cc(Nc3ccc4c(c3)CCC(N3CCCC3)CC4)ncc2s1 (stereo not drawn) [Example 330] | IC50 [1, 7]: < 100 nM |
| – | – | < 100 | 100 to 1000 | Cc1cc(Nc2cc3nc(-c4cccc(C(C)(C)C(=O)N(C)C)c4)sc3cn2)nc(N2C[C@@H]3C[C@H]2CN3C)n1 [Example 394] | – |
| – | – | < 100 | 100 to 1000 | Cc1cc(Nc2cc3nc(-c4ncco4)sc3cn2)nc(N2C[C@@H]3C[C@H]2CN3C)n1 [Example 388] | – |
| < 100 | < 100 | – | – | Cc1ccnn1-c1nc2cc(Nc3ccc(N4CCOCC4)c(CN4CCCC4)n3)ncc2s1 [Example 194, N-[2-(5-Methyl-1H-pyrazol-1-yl)-[1,3]thiazolo[5,4-c]pyridin-6-yl]-5-(morpholin-4-yl)-6-[(pyrrolidin-1-yl)methyl]pyridin-2-amine] | – |
| < 100 | 100 to 1000 | – | – | CC(C)(O)c1cc(-c2nc3cc(Nc4ccnc(N5C[C@@H]6C[C@H]5CN6)n4)ncc3s2)ccn1 [Example 120, 2-{4-[6-({2-[(1S,4S)-2,5-Diazabicyclo[2.2.1]heptan-2-yl]pyrimidin-4-yl}amino)-[1,3]thiazolo[5,4-c]pyridin-2-yl]pyridin-2-yl}propan-2-ol] | – |
| < 100 | 100 to 1000 | – | – | Cc1cccnc1-c1nc2cc(Nc3ccc(C)c(N4C[C@@H]5C[C@H]4CN5C)n3)ncc2s1 [Example 101, 5-Methyl-6-[(1S,4S)-5-methyl-2,5-diazabicyclo[2.2.1]heptan-2-yl]-N-[2-(3-methylpyridin-2-yl)-[1,3]thiazolo[5,4-c]pyridin-6-yl]pyridin-2-amine] | – |
| – | – | < 100 | < 100 | CCN1C[C@@H]2C[C@H]1CN2c1nc(C)cc(Nc2cc3nc(-c4cccc(C(=O)N[C@@H](C)C5CC5)c4)sc3cn2)n1 [Example 525] | – |
| – | – | < 100 | 100 to 1000 | CN1C[C@@H]2C[C@H]1CN2c1cncc(Nc2cc3nc(-c4cccc(NS(C)(=O)=O)c4)sc3cn2)n1 [Example 412] | IC50 [1, 7]: < 100 nM |
| – | – | < 100 | 100 to 1000 | CCN1C[C@@H]2C[C@H]1CN2c1nc(C)cc(Nc2cc3nc(-c4cccc(S(=O)(=O)CC(C)C)c4)sc3cn2)n1 [Example 339] | – |
| – | – | < 100 | 100 to 1000 | Cc1cc(Nc2cc3nc(-c4cccc(C(=O)N(C)C)c4)sc3cn2)nc(N2C[C@@H]3C[C@H]2CN3C[C@@H]2CCOC2)n1 [Example 488] | – |
| – | – | – | < 100 | Cc1cccnc1-c1nc2cc(Nc3ccc(C4CCOCC4)c(N4C[C@@H]5C[C@H]4CN5C)n3)ncc2s1 [Example 433] | IC50 [1, 7]: < 100 nM |
| – | – | < 100 | 100 to 1000 | Cc1cc(Nc2cc3nc(-c4cccc(C(=O)N(C)C)c4)sc3cn2)nc(N2C[C@@H]3C[C@H]2CN3Cc2ccccn2)n1 [Example 493] | – |
| – | – | < 100 | < 100 | Cc1cc(Nc2cc3nc(-c4cccc(C(=O)N(C)C)c4)sc3cn2)nc(N2C[C@@H]3C[C@H]2CN3[C@H]2CCOC2)n1 [Example 487] | – |

| Structure (SMILES) | IC50 [1, 3] [nM] | IC50 [2, 4] [nM] | IC50 [1, 5] [nM] | IC50 [2, 6] [nM] | also measured |
| --- | --- | --- | --- | --- | --- |
| Cc1cccnc1-c1nc2cc(Nc3ccc4c(n3)[C@H](N)CCC4)ncc2s1 [Example 317, (8R)-N2-[2-(3-methylpyridin-2-yl)-[1,3]thiazolo[5,4-c]pyridin-6-yl]-5,6,7,8-tetrahydroquinoline-2,8-diamine] | – | – | – | 1000 to 5000 | IC50 [1, 7]: < 100 nM |
